Source: PubChem BioAssay AID743506 (Broad Institute, 2014)
Activity calls are given as the source filed them.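 The calls were made as follows: active = compounds that block the bursicon-driven reporter signal with IC50 below 35000 nM; inactive = the rest.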

target: Bursicon receptor (LGR2/rickets), Drosophila melanogaster; assay: LGR2 bursicon receptor antagonists, dose response, cell-based, HEK293, CRE-luciferase, beta-gal normalized, dry powder, set 3 (AID 743506); settings: bursicon-stimulated, 4 h

Row | SMILES | IC50
1 | C[C@H](CO)N1C[C@H](C)[C@H](CN(C)C(=O)Nc2ccc3c(c2)OCO3)OCCCC[C@H](C)Oc2ccc(NC(=O)C3CCCCC3)cc2C1=O | < 35 µM
2 | C[C@@H]1CCCCO[C@H](CN(C)C(=O)Nc2ccc(F)cc2)[C@H](C)CN([C@@H](C)CO)C(=O)c2cc(NC(=O)C3CCCCC3)ccc2O1 | > 35 µM (inactive)
3 | COc1ccc(NC(=O)N(C)C[C@@H]2OCCCC[C@H](C)Oc3ccc(NC(=O)C4CCCCC4)cc3C(=O)N([C@H](C)CO)C[C@@H]2C)cc1 | < 35 µM
4 | C[C@H](CO)N1C[C@H](C)[C@H](CN(C)C(=O)Nc2ccc(F)cc2)OCCCC[C@H](C)Oc2ccc(NC(=O)C3CCCCC3)cc2C1=O | < 35 µM
5 | C[C@H](CO)N1C[C@H](C)[C@H](CN(C)C(=O)Nc2ccccc2)OCCCC[C@H](C)Oc2ccc(NC(=O)C3CCCCC3)cc2C1=O | < 35 µM
